In brackets after ≈: the same amount, converted by molar mass.
Columns and labels:
[1] = target: RAF proto-oncogene serine/threonine-protein kinase (Homo sapiens) (UniProt P04049); experiment: Inhibition of RAF1 (unknown origin) at 200 nM by ELISA
[2] = target: Aurora kinase A (Homo sapiens) (UniProt O14965); experiment: Inhibition of AurA (unknown origin) at 200 nM by electrophoretic mobility shift assay
[3] = target: Fibroblast growth factor receptor 1 (Homo sapiens) (UniProt P11362); experiment: Inhibition of FGFR1 (unknown origin) at 200 nM by electrophoretic mobility shift assay
[4] = target: Platelet-derived growth factor receptor alpha (Homo sapiens) (UniProt P16234); experiment: Inhibition of PDGFRalpha (unknown origin) at 200 nM by electrophoretic mobility shift assay
[5] = target: Serine/threonine-protein kinase Sgk1 (Homo sapiens) (UniProt O00141); experiment: Inhibition of SGK (unknown origin) at 200 nM by electrophoretic mobility shift assay
[6] = Aqueous solubility in PBS buffer solution at pH 7.4; type: physicochemical
[7] = target: T1, Serine/threonine-protein kinase pim-3 (Homo sapiens, UniProt Q86V86); experiment: Inhibition of PIM3 (unknown origin) using FL-Peptide 1 (5-FAM-AKRRRLSSLRA-COOH) substrate incubated for 2 hrs by electrophoretic mobility shift assay
[8] = target: Rho-associated protein kinase 1 (Homo sapiens) (UniProt Q13464); experiment: Inhibition of ROCK1 (unknown origin) at 200 nM by electrophoretic mobility shift assay
Chain of Rho-associated protein kinase 1 (Homo sapiens) (Q13464 2-1354 limits assumed): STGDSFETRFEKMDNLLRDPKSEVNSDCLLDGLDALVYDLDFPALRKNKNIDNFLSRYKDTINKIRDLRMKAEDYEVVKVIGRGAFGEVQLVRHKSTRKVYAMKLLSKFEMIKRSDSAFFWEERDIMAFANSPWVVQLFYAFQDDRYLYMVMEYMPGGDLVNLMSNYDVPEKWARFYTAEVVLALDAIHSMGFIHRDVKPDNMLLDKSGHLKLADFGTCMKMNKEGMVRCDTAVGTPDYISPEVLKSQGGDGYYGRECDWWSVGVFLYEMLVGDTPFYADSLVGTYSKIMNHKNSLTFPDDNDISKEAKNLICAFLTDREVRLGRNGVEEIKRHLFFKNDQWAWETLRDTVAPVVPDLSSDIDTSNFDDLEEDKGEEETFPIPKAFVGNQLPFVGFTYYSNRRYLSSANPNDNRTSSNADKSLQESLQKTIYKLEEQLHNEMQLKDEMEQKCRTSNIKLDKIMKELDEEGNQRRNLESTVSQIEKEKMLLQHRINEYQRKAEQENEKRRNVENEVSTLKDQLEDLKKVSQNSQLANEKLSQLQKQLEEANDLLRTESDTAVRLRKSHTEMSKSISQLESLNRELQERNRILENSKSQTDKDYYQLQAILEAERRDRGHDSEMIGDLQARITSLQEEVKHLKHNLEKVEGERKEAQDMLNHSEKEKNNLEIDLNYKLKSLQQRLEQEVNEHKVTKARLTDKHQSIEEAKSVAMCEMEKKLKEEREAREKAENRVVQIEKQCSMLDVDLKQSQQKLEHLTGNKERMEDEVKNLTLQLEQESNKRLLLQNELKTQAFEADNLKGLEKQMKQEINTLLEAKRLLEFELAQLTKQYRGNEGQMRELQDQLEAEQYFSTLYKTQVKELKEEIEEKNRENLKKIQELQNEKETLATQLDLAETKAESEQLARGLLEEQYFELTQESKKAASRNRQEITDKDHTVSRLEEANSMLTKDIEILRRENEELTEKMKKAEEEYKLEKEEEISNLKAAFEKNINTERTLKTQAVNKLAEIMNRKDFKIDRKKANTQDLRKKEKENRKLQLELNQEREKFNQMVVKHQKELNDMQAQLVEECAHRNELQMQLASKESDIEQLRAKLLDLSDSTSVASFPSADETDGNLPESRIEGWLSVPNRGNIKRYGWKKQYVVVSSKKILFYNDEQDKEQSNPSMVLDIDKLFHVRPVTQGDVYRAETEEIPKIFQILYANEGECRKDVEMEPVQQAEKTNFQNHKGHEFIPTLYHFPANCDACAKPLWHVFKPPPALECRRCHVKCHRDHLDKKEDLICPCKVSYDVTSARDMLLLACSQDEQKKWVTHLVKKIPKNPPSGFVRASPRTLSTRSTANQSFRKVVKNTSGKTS

[9] = target: T1, Serine/threonine-protein kinase pim-3; experiment: Inhibition of PIM3 (unknown origin) at 200 nM by electrophoretic mobility shift assay
CYP1A2 = target: T2, CYP1A2 (Homo sapiens, UniProt P05177); experiment: Inhibition of CYP1A2 (unknown origin) at 10 uM; type: ADME
T2 sequence (P05177 whole entry): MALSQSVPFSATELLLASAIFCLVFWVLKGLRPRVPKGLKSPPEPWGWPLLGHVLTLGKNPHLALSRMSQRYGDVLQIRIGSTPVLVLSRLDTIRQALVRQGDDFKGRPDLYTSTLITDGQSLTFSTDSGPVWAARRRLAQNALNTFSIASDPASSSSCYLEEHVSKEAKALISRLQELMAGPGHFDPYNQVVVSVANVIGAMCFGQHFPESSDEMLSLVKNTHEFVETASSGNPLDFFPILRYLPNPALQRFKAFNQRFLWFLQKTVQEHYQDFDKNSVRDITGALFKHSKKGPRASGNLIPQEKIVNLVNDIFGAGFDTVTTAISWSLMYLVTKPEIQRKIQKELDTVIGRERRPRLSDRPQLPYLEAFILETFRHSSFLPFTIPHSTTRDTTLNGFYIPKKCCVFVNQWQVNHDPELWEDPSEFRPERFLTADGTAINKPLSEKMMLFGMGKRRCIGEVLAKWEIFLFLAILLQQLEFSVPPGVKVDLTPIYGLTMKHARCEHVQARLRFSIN

[10] = target: Serine/threonine-protein kinase pim-2 (Homo sapiens, UniProt Q9P1W9); experiment: Inhibition of PIM2 (unknown origin) at 200 nM by electrophoretic mobility shift assay
Chain of Serine/threonine-protein kinase pim-2 (Q9P1W9 whole entry, looked up): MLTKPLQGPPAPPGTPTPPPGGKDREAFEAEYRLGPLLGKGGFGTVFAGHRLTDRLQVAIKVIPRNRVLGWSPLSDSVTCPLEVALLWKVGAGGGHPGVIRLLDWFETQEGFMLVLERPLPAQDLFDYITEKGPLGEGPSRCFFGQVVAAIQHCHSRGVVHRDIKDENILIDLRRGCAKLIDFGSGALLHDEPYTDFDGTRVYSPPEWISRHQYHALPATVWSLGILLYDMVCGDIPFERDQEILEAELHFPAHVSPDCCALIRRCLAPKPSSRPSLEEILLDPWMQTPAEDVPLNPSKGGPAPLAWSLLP

hERG (KCNH2) = hERG (KCNH2) (Homo sapiens, UniProt Q12809); experiment: Inhibition of human ERG at 10 uM by patch-clamp method
[11] = target: Angiopoietin-1 receptor (Homo sapiens) (UniProt Q02763); experiment: Inhibition of TIE2 (unknown origin) at 200 nM by electrophoretic mobility shift assay
[12] = target: Dual specificity tyrosine-phosphorylation-regulated kinase 1B (Homo sapiens) (UniProt Q9Y463); experiment: Inhibition of DYRK1B (unknown origin) at 200 nM by electrophoretic mobility shift assay
Chain of Dual specificity tyrosine-phosphorylation-regulated kinase 1B (Homo sapiens) (Q9Y463 whole entry, looked up): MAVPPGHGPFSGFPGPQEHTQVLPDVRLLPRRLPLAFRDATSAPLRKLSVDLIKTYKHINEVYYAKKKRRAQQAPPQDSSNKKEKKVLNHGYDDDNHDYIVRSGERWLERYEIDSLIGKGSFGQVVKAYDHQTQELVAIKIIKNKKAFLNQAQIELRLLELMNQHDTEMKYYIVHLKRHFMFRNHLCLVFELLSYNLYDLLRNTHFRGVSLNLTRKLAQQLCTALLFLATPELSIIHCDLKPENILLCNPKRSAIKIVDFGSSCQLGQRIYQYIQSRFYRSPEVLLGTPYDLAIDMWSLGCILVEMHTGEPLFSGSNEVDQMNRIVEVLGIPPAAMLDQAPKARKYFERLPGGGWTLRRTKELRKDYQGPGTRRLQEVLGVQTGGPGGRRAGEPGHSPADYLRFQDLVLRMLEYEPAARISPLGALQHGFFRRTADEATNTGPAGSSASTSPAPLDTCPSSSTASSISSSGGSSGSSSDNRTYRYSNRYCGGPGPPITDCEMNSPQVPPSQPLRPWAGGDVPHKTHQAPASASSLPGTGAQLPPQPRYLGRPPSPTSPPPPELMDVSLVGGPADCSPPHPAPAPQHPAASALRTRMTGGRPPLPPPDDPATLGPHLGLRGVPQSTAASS

[13] = target: Serine/threonine-protein kinase PAK 4 (Homo sapiens) (UniProt O96013); experiment: Inhibition of PAK4 (unknown origin) at 200 nM by electrophoretic mobility shift assay
Chain of Serine/threonine-protein kinase PAK 4 (Homo sapiens) (O96013 whole entry, looked up): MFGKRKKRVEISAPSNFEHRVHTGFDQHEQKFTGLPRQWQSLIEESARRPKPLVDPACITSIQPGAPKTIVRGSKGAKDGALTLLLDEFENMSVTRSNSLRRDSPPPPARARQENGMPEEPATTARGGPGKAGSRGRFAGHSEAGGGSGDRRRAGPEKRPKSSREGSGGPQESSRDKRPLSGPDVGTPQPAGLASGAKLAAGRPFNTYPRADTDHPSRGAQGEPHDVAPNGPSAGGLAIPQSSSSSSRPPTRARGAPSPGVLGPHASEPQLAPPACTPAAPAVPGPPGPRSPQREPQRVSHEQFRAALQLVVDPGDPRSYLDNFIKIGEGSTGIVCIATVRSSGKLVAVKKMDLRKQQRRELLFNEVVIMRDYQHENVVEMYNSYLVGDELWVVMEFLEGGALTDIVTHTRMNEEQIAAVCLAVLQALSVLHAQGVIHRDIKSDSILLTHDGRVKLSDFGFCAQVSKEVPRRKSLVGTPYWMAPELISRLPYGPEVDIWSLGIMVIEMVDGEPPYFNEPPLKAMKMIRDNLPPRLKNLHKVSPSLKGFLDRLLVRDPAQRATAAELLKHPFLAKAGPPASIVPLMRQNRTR

[14] = target: 3-phosphoinositide-dependent protein kinase 1 (Homo sapiens) (UniProt O15530); experiment: Inhibition of PDK1 (unknown origin) at 200 nM by electrophoretic mobility shift assay
[15] = target: High affinity nerve growth factor receptor (Homo sapiens) (UniProt P04629); experiment: Inhibition of TRKA (unknown origin) at 200 nM by electrophoretic mobility shift assay
[16] = target: Serine/threonine-protein kinase Chk1 (Homo sapiens) (UniProt O14757); experiment: Inhibition of CHK1 (unknown origin) at 200 nM by electrophoretic mobility shift assay
Chain of Serine/threonine-protein kinase Chk1 (Homo sapiens) (O14757 whole entry): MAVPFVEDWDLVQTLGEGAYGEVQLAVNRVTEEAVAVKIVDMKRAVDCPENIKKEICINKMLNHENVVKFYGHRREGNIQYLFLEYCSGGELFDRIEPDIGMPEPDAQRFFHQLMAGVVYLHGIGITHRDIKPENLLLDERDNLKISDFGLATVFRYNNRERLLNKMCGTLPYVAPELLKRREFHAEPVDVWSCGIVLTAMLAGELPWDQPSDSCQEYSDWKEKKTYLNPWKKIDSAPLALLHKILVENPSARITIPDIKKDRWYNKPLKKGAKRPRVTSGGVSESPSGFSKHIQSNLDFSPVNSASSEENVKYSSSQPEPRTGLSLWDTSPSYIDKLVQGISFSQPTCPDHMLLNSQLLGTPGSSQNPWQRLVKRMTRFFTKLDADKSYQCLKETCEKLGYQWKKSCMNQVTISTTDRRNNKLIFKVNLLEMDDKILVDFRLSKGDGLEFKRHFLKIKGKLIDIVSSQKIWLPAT

CYP2D6 = CYP2D6 (Homo sapiens, UniProt P10635); experiment: Inhibition of CYP2D6 (unknown origin) at 10 uM; type: ADME
[17] = target: Serine/threonine-protein kinase D2 (Homo sapiens) (UniProt Q9BZL6); experiment: Inhibition of PKD2 (unknown origin) at 200 nM by electrophoretic mobility shift assay
[18] = target: Tyrosine-protein kinase CSK (Homo sapiens) (UniProt P41240); experiment: Inhibition of CSK (unknown origin) at 200 nM by electrophoretic mobility shift assay
Chain of Tyrosine-protein kinase CSK (Homo sapiens) (P41240 2-450 limits assumed): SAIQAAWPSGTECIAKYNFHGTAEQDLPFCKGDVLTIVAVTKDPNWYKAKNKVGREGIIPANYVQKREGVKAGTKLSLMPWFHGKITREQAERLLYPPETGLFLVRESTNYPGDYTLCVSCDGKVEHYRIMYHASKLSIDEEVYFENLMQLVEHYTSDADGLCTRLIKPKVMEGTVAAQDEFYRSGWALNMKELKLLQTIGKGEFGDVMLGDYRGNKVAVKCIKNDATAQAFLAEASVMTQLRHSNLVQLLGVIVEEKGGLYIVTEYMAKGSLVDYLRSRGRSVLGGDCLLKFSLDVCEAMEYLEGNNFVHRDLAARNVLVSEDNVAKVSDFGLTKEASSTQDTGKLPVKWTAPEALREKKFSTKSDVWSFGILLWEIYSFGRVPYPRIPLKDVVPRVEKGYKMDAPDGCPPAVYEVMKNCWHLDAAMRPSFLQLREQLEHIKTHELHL

[19] = target: Hepatocyte growth factor receptor (Homo sapiens) (UniProt P08581); experiment: Inhibition of MET (unknown origin) at 200 nM by electrophoretic mobility shift assay
[20] = target: Mitogen-activated protein kinase 14 (Homo sapiens) (UniProt Q16539); experiment: Inhibition of p38alpha (unknown origin) at 200 nM by electrophoretic mobility shift assay
[21] = target: Tyrosine-protein kinase ABL1 (Homo sapiens) (UniProt P00519); experiment: Inhibition of ABL (unknown origin) at 200 nM by electrophoretic mobility shift assay
Chain of Tyrosine-protein kinase ABL1 (Homo sapiens) (P00519 whole entry): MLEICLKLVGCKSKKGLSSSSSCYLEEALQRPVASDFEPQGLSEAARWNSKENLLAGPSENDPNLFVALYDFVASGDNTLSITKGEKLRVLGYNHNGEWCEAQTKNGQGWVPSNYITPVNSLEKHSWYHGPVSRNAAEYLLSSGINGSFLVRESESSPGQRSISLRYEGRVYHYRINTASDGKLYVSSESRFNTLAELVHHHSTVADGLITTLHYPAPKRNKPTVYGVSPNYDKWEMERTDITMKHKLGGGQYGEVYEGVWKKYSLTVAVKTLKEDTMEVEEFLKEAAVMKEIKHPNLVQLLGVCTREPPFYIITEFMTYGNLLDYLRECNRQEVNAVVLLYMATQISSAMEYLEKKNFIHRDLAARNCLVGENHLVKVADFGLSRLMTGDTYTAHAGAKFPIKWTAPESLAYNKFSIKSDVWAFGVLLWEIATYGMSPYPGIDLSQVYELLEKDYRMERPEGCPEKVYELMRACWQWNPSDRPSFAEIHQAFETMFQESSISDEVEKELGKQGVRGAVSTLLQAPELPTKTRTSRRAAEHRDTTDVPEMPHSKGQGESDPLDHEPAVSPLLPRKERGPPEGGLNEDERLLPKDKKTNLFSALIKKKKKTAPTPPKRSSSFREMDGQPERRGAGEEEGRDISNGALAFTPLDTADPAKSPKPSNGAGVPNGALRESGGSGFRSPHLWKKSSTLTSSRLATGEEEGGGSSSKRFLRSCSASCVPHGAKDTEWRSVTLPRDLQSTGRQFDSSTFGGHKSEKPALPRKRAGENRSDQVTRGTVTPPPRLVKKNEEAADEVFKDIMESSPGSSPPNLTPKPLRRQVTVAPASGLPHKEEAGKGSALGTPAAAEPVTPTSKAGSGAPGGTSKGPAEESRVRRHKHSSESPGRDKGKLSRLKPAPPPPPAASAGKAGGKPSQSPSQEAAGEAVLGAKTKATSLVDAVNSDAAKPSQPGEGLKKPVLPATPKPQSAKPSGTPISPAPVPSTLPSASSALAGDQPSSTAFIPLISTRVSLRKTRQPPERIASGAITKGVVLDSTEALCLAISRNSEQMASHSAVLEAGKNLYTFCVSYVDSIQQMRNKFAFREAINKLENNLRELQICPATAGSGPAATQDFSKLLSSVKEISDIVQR

[22] = target: Serine/threonine-protein kinase 4 (Homo sapiens) (UniProt Q13043); experiment: Inhibition of MST1 (unknown origin) at 200 nM by electrophoretic mobility shift assay
[23] = target: Insulin-like growth factor 1 receptor (Homo sapiens) (UniProt P08069); experiment: Inhibition of IGF1R (unknown origin) at 200 nM by electrophoretic mobility shift assay
[24] = target: Death-associated protein kinase 1 (Homo sapiens, UniProt P53355); experiment: Inhibition of DAPK1 (unknown origin) at 200 nM by electrophoretic mobility shift assay
[25] = target: Serine/threonine-protein kinase Nek2 (Homo sapiens) (UniProt P51955); experiment: Inhibition of NEK2 (unknown origin) at 200 nM by electrophoretic mobility shift assay
[26] = target: Mitogen-activated protein kinase 9 (Homo sapiens) (UniProt P45984); experiment: Inhibition of JNK2 (unknown origin) at 200 nM by electrophoretic mobility shift assay
[27] = target: Serine/threonine-protein kinase pim-1 (Homo sapiens, UniProt P11309); experiment: Inhibition of PIM1 (unknown origin) at 200 nM by electrophoretic mobility shift assay
[28] = target: Epidermal growth factor receptor (Homo sapiens) (UniProt P00533); experiment: Inhibition of EGFR (unknown origin) at 200 nM by electrophoretic mobility shift assay
[29] = target: Inhibitor of nuclear factor kappa-B kinase subunit beta (Homo sapiens) (UniProt O14920); experiment: Inhibition of IKKbeta (unknown origin) at 200 nM by electrophoretic mobility shift assay
Homo sapiens = species on record: Homo sapiens; experiment: Inhibition of p70S6k (unknown origin) at 200 nM by electrophoretic mobility shift assay

inhibition [1]	inhibition [2]	inhibition [3]	inhibition [4]	inhibition [5]	solubility [6]	IC50 [7]	inhibition [8]	inhibition [9]	inhibition at 10 µM (CYP1A2)	inhibition [10]	inhibition [11]	inhibition [12]	inhibition [13]	inhibition [14]	inhibition [15]	inhibition [16]	inhibition at 10 µM (CYP2D6)	inhibition [17]	Compound	inhibition at 10 µM (hERG (KCNH2))	other results
11.3%	5.1%	-4%	5.4%	4.3%	182 µM (≈ 71.2 µg/mL)	1.8 nM	88.9%	102%	33%	28.4%	0%	24.8%	13%	-3.7%	1.8%	9.2%	23%	31.6%	COc1ccc2c(c1CN1CCNCC1)O/C(=C\c1n[nH]c3ncccc13)C2=O	34%	inhibition [18]: -5.8%; inhibition [19]: -2.3%; inhibition [20]: -1.8%; inhibition [21]: -4.1%; inhibition [22]: -2.3%; inhibition [23]: -3%; inhibition [24]: 80.5%; inhibition [25]: -2.1%; inhibition [26]: 1.8%; inhibition [27]: 102%; inhibition [28]: -8%; inhibition [29]: 4.1%; inhibition (Homo sapiens): 66.5%
-9.9%	-0.4%	3.1%	24.2%	0.6%	558 µM (≈ 226 µg/mL)	2.5 nM	77%	99%	2%	30.2%	0.8%	48%	-6.7%	0.2%	10.3%	4.1%	14%	13.1%	COc1ccc2c(c1C(C)N1CCNCC1)O/C(=C\c1n[nH]c3ncccc13)C2=O (stereo unspecified)	34%	inhibition [18]: 0.9%; inhibition [19]: 0.5%; inhibition [20]: -1%; inhibition [21]: 1%; inhibition [22]: -7.4%; inhibition [23]: 1.1%; inhibition [24]: 94.9%; inhibition [25]: -4%; inhibition [26]: -0.5%; inhibition [27]: 99.4%; inhibition [28]: -1%; inhibition [29]: -2.8%; inhibition (Homo sapiens): 47.3%

Reference: ChEMBL document CHEMBL3734671, “Design and synthesis of an in vivo-efficacious PIM3 kinase inhibitor as a candidate anti-pancreatic cancer agent” (Bioorg Med Chem Lett, 2015)
